Patent US7902422B2 (priority 2004, dated 2011)
Where a SMILES comes first, the peptide text is derived from it. [ ]: non-standard residue; d: D form. The star is where a group is joined. Nva = CCC[C@H](N)C(=O)O; Cbz = O=C(OCc1ccccc1)*

Legend:
EIN3 protein [1] = assay: EIN3 protein immunoblot, etiolated wild-type seedlings; type: in vivo, Arabidopsis
Method: With the exception of eto2 in Landsberg erecta (Ler) background, the ecotype Columbia (Col-0) was the parent strain for all mutant and transgenic lines described herein. Arabidopsis seeds were surface-sterilized and plated on the surface of MS medium (4.3 g MS salts, 10 g sucrose, pH 5.7, 8 g bactoagar per liter). After 3-4 days in the light at 4° C., the plates were wrapped in foil and kept in a 24° C. incubator before the phenotypes of seedlings were analyzed. For propagation, seedlings from plates were transferred to soil (Promix-HP) and grown to maturity at 22° C. under a 16 hr light/8 hr dark cycle.
(§1) Ethylene treatment of Arabidopsis seedlings grown on plates was performed in containers by flowing through hydrocarbon-free air supplemented with 10 ppm (parts per million) ethylene or were treated with hydrocarbon-free air alone (Kieber et al., Cell 72, 427-441, 1993). For drug treatments, Arabidopsis suspension cell cultures were treated with MG132 (50 μM), MG115 (50 μM), Pefabloc SC (100 μM) or DMSO (0.1%) for a time course study. Alternatively, etiolated seedlings were germinated for three days on a disc of Whatman paper resting on the surface of MS medium. MG132 (50 μM), MG115 (50 μM), Pefabloc SC (100 μM) or DMSO (0.1%) was added to the paper discs for 4 hr. Cycloheximide (100 μM) was added to the paper discs and ethylene or air was applied for different amounts of time.

EIN3-GFP fusion protein [2] = assay: EIN3-GFP nuclear accumulation, fluorescence microscopy of transgenic seedlings; type: in vivo, Arabidopsis; conditions: for abundance of EIN3-GFP in the nucleus: hypocotyl and root cells, ACC 50 μM or MG132 50 μM, absence of ethylene for MG132
Method: Transgenic seedlings that expressed a functional EIN3-GFP fusion protein were mounted on glass slides using PBS as a mounting medium. All images were collected on a fluorescence microscope (Olympus BX60) and the color of the images was artificially added in Photoshop 5.0 (Adobe Systems). For the time course experiment, after the first cell image was taken, 50 μM of ACC or MG132 was applied to the slide and the same cell was followed for 4 hr.

EIN3 protein [3] = assay: EIN3 protein immunoblot, Arabidopsis suspension cell cultures; type: cell-based; conditions: suspension cells; MG132 50 μM (after 30 min), MG115 50 μM, Pefabloc SC 100 μM
Method: as §1

[4] = test system: transgenically overexpressed EIN3 protein; type: in vivo, Arabidopsis; conditions: for abundance of transgenically overexpressed EIN3 protein: EIN3ox seedlings grown in air, MG132 50 μM, MG115 50 μM, Pefabloc SC 100 μM, 4 hr
Method: as §1

EBF1 gene = conditions: in vivo
Method: (§2) (A) Alignment of EBF1 (SEQ ID NO: 2) and EBF2 (SEQ ID NO: 4) amino acid sequences generated with ClustalW program. Identical amino acid residues in the two proteins are highlighted with black boxes. […] (B) Alignment of F-box motif sequences. […] Identities and similarities among the different proteins are highlighted by black and gray, respectively. Consensus residues are denoted by asterisks. […] Etiolated wild-type seedlings were treated with air (air) or ethylene (C2H4) for 4 hr before RNA was extracted for analysis. Each treatment was performed in replicate. The means of normalized intensity were used to indicate relative expression levels.

EBF2 gene = conditions: in vivo
Method: as §2

EIN3-GFP fusion protein [5] = conditions: immunoblot, ethylene treatment
Method: Protein samples were prepared by homogenizing the powdered tissues in 2×SDS-PAGE sample buffer and boiling the homogenate for 5 min. After centrifugation, the protein extracts were fractionated by 4-12% gradient Tris-Glycine Novex precast gels (Invitrogen), blotted onto a nitrocellulose filter. The blot was probed first with anti-EIN3 antibody, and was subsequently stripped with 0.2 N glycine (pH 2.5) for 3 times and re-probed with either anti-CRY1 antibody (Lin et al., Proc Natl Acad Sci 92, 8423-8427, 1995) or anti-SUB1 antibody (Guo et al., Science 291, 487-490, 2001)
The triple response phenotype was scored in T2 seedlings originated from individual Kanamycin-resistant T1 plants. Transgenic seedlings that expressed a functional EIN3-GFP fusion protein were mounted on glass slides using PBS as a mounting medium. […] For the time course experiment, after the first cell image was taken, 50 μM of ACC or MG132 was applied to the slide and the same cell was followed for 4 hr.

## NC1(C(=O)O)CC1 [ACC, aminocyclopropane-1-carboxylic acid]
EIN3 protein [1]; wild-type seedlings on medium with high concentrations of ACC (10 and 50 μM), 3 days
  levels of EIN3 protein: dramatically elevated
EIN3-GFP fusion protein [2]; 50 μM ACC, time course, same cell followed for 4 hr
  time of ACC treatment after which EIN3-GFP accumulated in the nucleus: 1 h
EIN3-GFP fusion protein [2]
  abundance of EIN3-GFP in the nucleus: substantially enhanced

## CCC[C@@H](C=O)NC(=O)[C@H](CC(C)C)NC(=O)[C@H](CC(C)C)NC(=O)OCc1ccccc1 [MG115] (Cbz-Leu-Leu-[Nva]-aldehyde)
EIN3 protein [3]
  levels of EIN3 protein (EIN3 abundance): enhanced EIN3 abundance
[4]
  abundance of transgenically overexpressed EIN3 protein: similarly induced

## CC(C)C[C@@H](C=O)NC(=O)[C@H](CC(C)C)NC(=O)[C@H](CC(C)C)NC(=O)OCc1ccccc1 [MG132] (Cbz-Leu-Leu-Leu-aldehyde)
EIN3 protein [3]
  levels of EIN3 protein (EIN3 abundance): markedly increased
[4]
  abundance of transgenically overexpressed EIN3 protein: similarly induced
EIN3-GFP fusion protein [2]
  abundance of EIN3-GFP in the nucleus: rapid nuclear accumulation

## Cl.NCCc1ccc(S(=O)(=O)F)cc1 [Pefabloc]
EIN3 protein [3]
  levels of EIN3 protein (EIN3 abundance): no effect
[4]
  abundance of transgenically overexpressed EIN3 protein: not

## C=C [ethylene, Ethylene]
EIN3 protein [1]; ethylene-pretreated (2 hr) wild-type seedlings, 100 μM cycloheximide, kept in ethylene
  levels of EIN3 protein with de novo translation blocked: remained constitutively high
EIN3 protein [1]; wild-type plants, ethylene gas 10 ppm, after 1 hr
  level of EIN3 protein: markedly increased
[4]; EIN3ox plants, ethylene gas 10 ppm
  levels of transgenically overexpressed EIN3 protein: up-regulated
EBF1 gene
  RNA level of EBF1 gene: induced
EBF2 gene
  RNA level of EBF2 gene: induced
EIN3-GFP fusion protein [5]
  level of EIN3-GFP fusion protein: dramatically increased

## O=[N+]([O-])[O-].[Ag+] [silver ion, AgNO3]
EIN3 protein [1]; wild-type seedlings on MS medium with 100 μM AgNO3 for 3 days, ethylene 4 hr
  ethylene-induced EIN3 accumulation: no longer induced by ethylene
